{"source": "patent US20020032581A1", "about": "“Single-patient drug trials used with accumulated database: risk of habituation” (priority 2000, published 2002)", "key": {"[1]": {"test_system": "patient with perennial allergic rhinitis", "settings": "for incidence of sedation: day 4 of treatment"}, "[2]": {"test_system": "patients with allergic rhinitis", "assay": "database follow-up of similar patients placed on CM", "format": "in vivo, human", "settings": "year long follow-up", "procedure": "It is determined that they are a candidate for the individual patient formulary management control system. They are considered a candidate because there are similar patients, e.g. 50, in the database, and 40 of them are placed on CM rather than CL based upon the outcome of single-patient drug trials. […] If CL is found to be more acceptable considering the safety, effectiveness and desirability data of the individual patient questionnaire, the co-pay is the same low rate as for CM."}, "individual patient": {"test_system": "individual patient", "assay": "SPAS single-patient abuse potential test (liking score)", "settings": "for difference of liking score vs placebo: drug minus placebo; for liking score: on drug, codeine: person, diazepam: person, nicotine: person, on average", "procedure": "Single-patient drug kits can be designed to test for “liking scores,” “abuse potential scores,” and patient's desire to re-use the test article compared to placebo and positive controls.\nIn this example, the abuse potential of the narcotic analgesic codeine is tested. A single-patient trial is conducted in a patient for whom treatment with codeine is deemed appropriate. The patient receives a SPAS test kit containing codeine, an alternative drug, e.g., ibuprofen and a questionnaire designed to elicit the liking score, desirability to re-use test article and abuse potential of the patient to codeine.\nIn another example, in follow-up to the test above, the clinician compares diazepam to secobarbital in the same patient."}, "[3]": {"test_system": "previously tested patients", "assay": "follow-up of previously tested similar patients for addiction / smoking", "settings": "for level of addiction on follow-up of similar patients: human, in vivo"}, "hyperactive child": {"test_system": "hyperactive child", "assay": "single-patient drug trial of methylphenidate vs placebo (SPAS kit, parent/school questionnaires)", "format": "in vivo, human", "procedure": "The usefulness of methylphenidate (Ritalin) treatment in a hyperactive child (Minimum Brain Dysfunction or Attention Deficit Disorder) is evaluated.\nConsists of instructions, “calendar” packaging for drug and a substantially identical looking placebo to assure appropriate dosing and monitoring of compliance, questionnaires and assessment forms and instructions. Completed forms are sent to a neutral observer who has previously assigned the randomized, multiple-crossover schedule of drug and placebo periods. Only the observer has access to when active drug and placebo are taken and only the observer analyzes the data (exception: open-label or single-blind trials). Results are mailed to the physician and, in this case, parent for use in evaluating the usefulness of the therapy. The physician and parent are contacted, e.g., every three months to provide data on therapies utilized, and perceived outcome, until the condition is resolved. The data is also added to a post-marketing surveillance database for use in evaluating future individual study results, and for access by drug companies, regulatory agencies, and health care organizations.\nThe questionnaire portion of the kit includes an initial consent form for the parent or guardian to complete. The questionnaire also provides background information on the study and possible side effects associated with the medication. Also included therein is a form for providing relevant patient and family histories. More importantly, the questionnaire, in this case includes a portion for the weekly input by parents/guardians and school observers for answers to questions relating to the drug evaluation. Physician questionnaires are similarly arranged.\nThe kit described in Example 1 is used to again evaluate the usefulness of methylphenidate (Ritalin) treatment in a hyperactive child except that all interested parties have the benefit of a set of data generated from a pool of patients having a similar need for treatment. […]"}, "[4]": {"test_system": "patients with the same disorder (hyperactive child)", "assay": "pooled SPAS database and follow-up of patients continued on methylphenidate 40 mg daily", "format": "in vivo, human", "procedure": "All results obtained from the data are compared against the results provided by data amassed from a pool of about 200 patients with the same disorder. If, of these 200 patients, 55 experience encouraging results (along with the current patient) they are continued on 40 mg daily treatment. If, of these 55 patients, 5 are lost to follow-up, with 50 remaining for prospective evaluation, the physician continues the patient on 40 mg methylphenidate daily based solely on the isolated SPAS single-patient drug trial results. The physician then reviews the pooled data on the 50 patients. This will be done to understand under what circumstances this individual patient is likely to continue to show benefit from methylphenidate 40 mg treatment, and what conditions lead to treatment failure.\nIf for example, the pool of 50 patients who continue treatment have the following scores following the original SPAS testing:\nAll 50 patients are followed up by telephone interview monthly for nine months or more, and outcomes are prospectively documented."}, "hypertensive person": {"test_system": "hypertensive person", "assay": "double-blind single-patient trial of sustained release verapamil vs sustained release propranolol", "format": "in vivo, human", "settings": "for mean systolic blood pressure increases: verapamil 240 mg once daily vs propranolol 180 mg once daily; for mean systolic blood pressure increases / mean diastolic pressure: little difference between drugs; for mean diastolic pressure: throughout the six week trial", "procedure": "In this example, the validity of using a sustained release formulation of verapamil 240 mg once daily as a therapeutic alternative to sustained release propranolol 180 mg once daily in a hypertensive person is shown. The trial during which the two medications are randomly administered in a double-blind manner is six weeks. The questionnaire used is set up in a manner similar to that described in above examples except that the questions elicit information related to the disease of hypertension. Blood pressure and adverse event reports are taken daily by the patient. […] Sleepiness is reported at equal rates for both drugs. All values are statistically insignificant and the therapeutic alternative selection is objectively validated."}, "[5]": {"settings": "pool of 50 patients who continue treatment"}}, "note": "Counter-ions that a name gives are not always drawn.", "data": [{"smiles": "CCOC(=O)N1CCC(=C2c3ccc(Cl)cc3CCc3cccnc32)CC1", "note": "[CL, loratidine]", "values": [{"measurement": "incidence of sedation", "setting": "[1]", "result": 2, "unit": "on a 3 point scale"}]}, {"smiles": "CN(C)CCC(c1ccc(Cl)cc1)c1ccccn1", "note": "(stereo not shown) [CM, chlorpheniramine maleate]", "values": [{"measurement": "patients well maintained", "setting": "[2]", "result": "37 of the 40"}, {"measurement": "patient's symptoms on reevaluation", "setting": "[1]; 6 and 12 months post-initiation of CM treatment", "result": "well maintained"}, {"measurement": "incidence of sedation", "setting": "[1]", "result": 2, "unit": "on a 3 point scale"}, {"measurement": "most bothersome symptom, sneezing", "setting": "[1]; person, dust mite protein allergy", "result": "similarly and effectively controlled"}]}, {"smiles": "COc1ccc2c3c1O[C@H]1[C@@H](O)C=C[C@H]4[C@@H](C2)N(C)CC[C@@]341", "note": "[codeine]", "values": [{"measurement": "difference of liking score vs placebo", "setting": "individual patient", "result": 2, "unit": "units"}, {"measurement": "liking score", "setting": "individual patient", "result": "3 out of 5"}, {"measurement": "became addicted", "setting": "[3]; Caucasian female patients 30 to 40 years with 0 unit difference", "result": "10 out of 1250"}, {"measurement": "became addicted", "setting": "[3]; black male patients 40 to 50 years old with 2-unit difference, treated with codeine", "result": "25 out of 600"}, {"measurement": "became addicted", "setting": "[3]; similar patients with 3 unit differences", "result": "50 out of 110"}]}, {"smiles": "CN1C(=O)CN=C(c2ccccc2)c2cc(Cl)ccc21", "note": "[diazepam]", "values": [{"measurement": "difference of liking score vs placebo", "setting": "individual patient", "result": 0, "unit": "units"}, {"measurement": "liking score", "setting": "individual patient", "result": "4 out of 5"}, {"measurement": "level of addiction on follow-up of similar patients", "setting": "[3]", "result": "comparatively low level of addiction"}]}, {"smiles": "COC(=O)C(c1ccccc1)C1CCCCN1", "note": "(stereo not shown) [methylphenidate]", "values": [{"measurement": "patient's attention span", "setting": "hyperactive child; 40 mg daily as 10 mg four times daily, periods when methylphenidate is given vs placebo", "result": "improved substantially"}, {"measurement": "teacher comments", "setting": "hyperactive child; during methylphenidate dosing periods", "result": "corroborate improved attention span"}, {"measurement": "sleep patterns", "setting": "hyperactive child; during methylphenidate periods, 40 mg daily", "result": "statistically altered"}, {"measurement": "show severe episodes of bizarre behaviors", "setting": "[4]; patients with statistically altered sleep patterns on SPAS testing, within two months", "result": 90, "unit": "%"}, {"measurement": "patients experience grand mal seizures", "setting": "[4]; patients with statistically altered sleep patterns, within two months", "result": "two"}, {"measurement": "Sleep Patterns: have been statistically altered", "setting": "[4]; [5]", "result": 50, "unit": "%"}, {"measurement": "Sleep Patterns: have not been statistically altered", "setting": "[4]; [5]", "result": 50, "unit": "%"}, {"measurement": "Teacher Comments: corroborate improved attention span", "setting": "[4]; [5]", "result": 80, "unit": "%"}, {"measurement": "Teacher Comments: do not corroborate improved attention span", "setting": "[4]; [5]", "result": 20, "unit": "%"}, {"measurement": "Attention Span: have substantial improvement", "setting": "[4]; pool of 50 patients who continue treatment, 40 mg daily", "result": 100, "unit": "%"}]}, {"smiles": "CN1CCCC1c1cccnc1", "note": "(stereo not shown) [nicotine]", "values": [{"measurement": "difference of liking score vs placebo", "setting": "individual patient", "result": 3, "unit": "units"}, {"measurement": "liking score", "setting": "individual patient", "result": "4 out of 5"}, {"measurement": "are smokers", "setting": "[3]; female Caucasian patients 15 to 17 years old with similar 3-unit difference", "result": "820 out of 975"}]}, {"smiles": "CC(C)NCC(O)COc1cccc2ccccc12", "note": "(stereo not shown) [propranolol]", "values": [{"measurement": "sleepiness reported", "setting": "hypertensive person; human, in vivo", "result": "equal rates"}, {"measurement": "mean systolic blood pressure increases", "setting": "hypertensive person; six week trial", "result": 3, "unit": "%"}, {"measurement": "mean diastolic pressure", "setting": "hypertensive person", "result": "essentially stable"}]}, {"smiles": "C=CCC1(C(C)CCC)C(=O)NC(=O)NC1=O", "note": "(stereo not shown) [secobarbital]", "values": [{"measurement": "difference in liking scores, diazepam compared to secobarbital", "setting": "individual patient; same patient", "result": "greater addiction potential"}, {"measurement": "level of addiction on follow-up of similar patients", "setting": "[3]", "result": "high level of addiction"}]}, {"smiles": "COc1ccc(CCN(C)CCCC(C#N)(c2ccc(OC)c(OC)c2)C(C)C)cc1OC", "note": "(stereo not shown) [verapamil]", "values": [{"measurement": "sleepiness reported", "setting": "hypertensive person; six week trial, both drugs", "result": "equal rates"}, {"measurement": "mean systolic blood pressure increases", "setting": "hypertensive person; six week trial", "result": 3, "unit": "%"}, {"measurement": "mean diastolic pressure", "setting": "hypertensive person", "result": "essentially stable"}]}]}
